ChEMBL document CHEMBL3785092, “Synthesis and biological evaluation of novel tetrahydroisoquinoline-C-aryl glucosides as SGLT2 inhibitors for the treatment of type 2 diabetes” (Eur J Med Chem, 2016)

Molecular target: T1, Sodium/glucose cotransporter 2 (Homo sapiens) (UniProt P31639)
T1 sequence (whole entry): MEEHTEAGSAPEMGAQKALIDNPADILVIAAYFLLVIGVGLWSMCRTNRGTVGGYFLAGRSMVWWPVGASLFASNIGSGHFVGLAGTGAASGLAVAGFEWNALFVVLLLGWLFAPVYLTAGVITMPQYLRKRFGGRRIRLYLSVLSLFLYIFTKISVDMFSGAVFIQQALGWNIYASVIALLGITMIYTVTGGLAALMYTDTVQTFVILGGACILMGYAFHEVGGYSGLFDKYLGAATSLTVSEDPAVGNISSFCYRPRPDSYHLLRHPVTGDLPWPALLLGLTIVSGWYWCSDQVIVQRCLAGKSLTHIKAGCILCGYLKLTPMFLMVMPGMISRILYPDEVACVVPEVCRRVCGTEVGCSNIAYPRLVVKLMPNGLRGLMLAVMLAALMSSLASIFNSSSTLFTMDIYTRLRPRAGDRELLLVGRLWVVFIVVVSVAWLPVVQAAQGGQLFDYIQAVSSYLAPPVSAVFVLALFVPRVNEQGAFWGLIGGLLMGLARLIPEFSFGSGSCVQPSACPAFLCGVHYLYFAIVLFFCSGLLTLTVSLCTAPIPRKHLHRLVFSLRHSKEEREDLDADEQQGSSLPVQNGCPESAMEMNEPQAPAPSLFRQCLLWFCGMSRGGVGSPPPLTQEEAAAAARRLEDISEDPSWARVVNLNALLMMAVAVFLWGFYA
Assay: Inhibition of human SGLT2 expressed in CHO cells assessed as reduction in [14C]AMG uptake at 10 uM after 1 hr by liquid scintillation counting method relative to control
Format: cell-based

inhibition [%]	SMILES
32.1	COc1ccc(C[C@@H]2NCCc3ccc([C@@H]4O[C@H](CO)[C@@H](O)[C@H](O)[C@H]4O)cc32)cc1
49.7	OC[C@H]1O[C@@H](c2ccc3c(c2)[C@H](c2ccc4c(c2)OCO4)NCC3)[C@H](O)[C@@H](O)[C@@H]1O
85.4	CCOc1ccc(Cc2cc([C@@H]3O[C@H](CO)[C@@H](O)[C@H](O)[C@H]3O)ccc2Cl)cc1
